Patent US8304427B2, “Acylthiourea compound or salt thereof, and use thereof” (Taiho Pharmaceutical Co., Ltd., priority 2008, dated 2012)
Where two headings read alike, the source gives them in different places.

Legend:
[1] = test system: NUGC4 cells; experiment: Cell-proliferation inhibitory assay against NUGC4 cells (Crystal Violet); format: cell-based; details: Homo sapiens, NUGC-4, 72 h; NUGC4, cancer, c-Met status (+), 3 days
Procedure: Cell-Proliferation Inhibitory Assay Against NUGC4 Cells (Human Gastric Cancer Cell Strain in Which c-Met is Over-Expressed and Highly Activated), In Vitro Test
NUGC4 cell suspension (in a 10% FBS-containing RPMI 1640 medium (product of Wako Pure Chemical Industries Ltd.) or a FBS-containing DMEM medium (product of Nacalai Tesque, Inc.)) was inoculated to each well of a 96-well (flat-bottom) microplate in an amount of 2×10^3 cells (0.1 mL), and the plate was incubated in an incubator under 5% CO2 gas atmosphere at 37° C. for one day. Each of the compounds of the present invention and comparative compound 1 was dissolved in dimethyl sulfoxide to a concentration of 30 mM. The solution was diluted with 10% FBS-containing RPMI 1640 or DMEM medium, to a final test compound concentration of 60, 20, 6, 2, 0.6, or 0.2 μM. The thus-prepared test compound solution was added to each well of the NUGC4 cell culture plate at 0.1 mL/well, and the plate was incubated in an incubator under 5% CO2 gas atmosphere at 37° C. for 3 days. After culturing, 25% aqueous glutaraldehyde solution (product of Nacalai Tesque, Inc.) was added to each well at 20 μL, and the plate was left to stand at room temperature for 20 minutes, whereby cells were fixed. Thereafter, the plate was washed with tap water and dried. Then, aqueous 0.05% Crystal Violet/20% methanol solution (product of Wako Pure Chemical Industries Ltd.) was added to each well at 100 μL/well, and the plate was left to stand at room temperature for 20 minutes, whereby cells were stained. Thereafter, the plate was washed with tap water and dried. To each well, 0.05 M NaH2PO4/ethanol (1/1=v/v) (100 μL) was added, to thereby extract Crystal Violet. The absorbance of the extracted Crystal Violet was measured at 540 nm using a microplate reader, and the absorbance was employed as an index for living cell count. Percent inhibition was calculated by the following equation, and the 50% inhibition test compound concentration (IC50 (μM)) was calculated. Percent inhibition (%)=(C−T)/C×100 • T: Absorbance of well to which a test compound was added • C: Absorbance of well to which no test compound was added

[2] = test system: HAOSMC (human aortic smooth muscle cell); experiment: Cell proliferation inhibition test against normal cells HAOSMC; format: cell-based; details: for IC50: Homo sapiens, 72 h, read-out: IC50 HAOSMC; for ratio HAOSMC: IC50 HAOSMC relative to IC50 NUGC4
Procedure: [Worded in the source for another cell line; this cell line is reported under the same test.] (§1) The thus-prepared test compound solution was added to each well of the NUGC4 cell culture plate at 0.1 mL/well, and the plate was incubated in an incubator under 5% CO2 gas atmosphere at 37° C. for 3 days. […] Thereafter, the plate was washed with tap water and dried. Then, aqueous 0.05% Crystal Violet/20% methanol solution (product of Wako Pure Chemical Industries Ltd.) was added to each well at 100 μL/well, and the plate was left to stand at room temperature for 20 minutes, whereby cells were stained. Thereafter, the plate was washed with tap water and dried. To each well, 0.05 M NaH2PO4/ethanol (1/1=v/v) (100 μL) was added, to thereby extract Crystal Violet. The absorbance of the extracted Crystal Violet was measured at 540 nm using a microplate reader, and the absorbance was employed as an index for living cell count. […] Percent inhibition (%)=(C−T)/C×100 • T: Absorbance of well to which a test compound was added • C: Absorbance of well to which no test compound was added

[3] = test system: HCT-116; experiment: Cell proliferation inhibition test against c-Met low expressing tumor cells (HCT-116); format: cell-based; details: for IC50: Homo sapiens; for ratio HCT-116: IC50 HCT-116 relative to IC50 NUGC4
[4] = Dose determination study (body weight change, maximum tolerated dose); format: in vivo; details: nude mice, peroral
Procedure: […]. The maximum tolerated dose was calculated based on the change in body weight of the mice.
During the administration period, percent body weight change of mice (BWC %) was calculated. […] Thus, the half value of the toxicity expression dose was decided as a maximum tolerated dose.
BWC of mice was calculated by the following equation, and the change in mean BWC of each group during the administration period is shown in FIG. 1. BWC(%)=([(body weight of mouse on the day of weight measurement)−(body weight of mouse at grouping)]/(body weight of mouse at grouping))×100

[5] = test system: HMEC (human skin microvascular endothelial cell); experiment: Cell proliferation inhibition test against normal cells HMEC; format: cell-based; details: for IC50: Homo sapiens, HMEC, 72 h, read-out: IC50 HMEC; for ratio HMEC: IC50 HMEC relative to IC50 NUGC4
Procedure: [Worded in the source for another cell line; this cell line is reported under the same test.] as §1

[6] = biological target: c-Met (Homo sapiens, UniProt P08581); experiment: c-Met inhibitory assay using AlphaScreen (Method A); format: biochemical; parameters: purchased Carna bio Co., Ltd 08-051; details: ATP 20 μM
Procedure: Inhibitory activity of compounds against c-Met kinase was determined through the following procedures. Method A) c-Met inhibitory assay using AlphaScreen™
A biotinylated peptide including a phosphorylated site of Pyk2 (Tyr402), which is reported as a bio-substrate in Clin. Cancer Res. vol. […] The mixture was allowed to react at room temperature for 20 minutes. EDTA was added to the reaction mixture to a final concentration of 50 mM, to thereby terminate reaction. […] The reaction was done for one hour at room temperature. Thereafter, the fluorescence intensity from the reaction mixture was measured using a multi-label counter (EnVision™, Perkin Elmer).

[7] = HCT-116, 72 h, read-out: IC50 HCT-116
[8] = HAOSMC, normal, c-Met status (−), 3 days
[9] = 72 h, HCT-116, cancer, c-Met status (−), 3 days, read-out: IC50 HCT-116
[10] = normal, c-Met status (−), 3 days

Sequence of c-Met (P08581 956-1390 limits assumed): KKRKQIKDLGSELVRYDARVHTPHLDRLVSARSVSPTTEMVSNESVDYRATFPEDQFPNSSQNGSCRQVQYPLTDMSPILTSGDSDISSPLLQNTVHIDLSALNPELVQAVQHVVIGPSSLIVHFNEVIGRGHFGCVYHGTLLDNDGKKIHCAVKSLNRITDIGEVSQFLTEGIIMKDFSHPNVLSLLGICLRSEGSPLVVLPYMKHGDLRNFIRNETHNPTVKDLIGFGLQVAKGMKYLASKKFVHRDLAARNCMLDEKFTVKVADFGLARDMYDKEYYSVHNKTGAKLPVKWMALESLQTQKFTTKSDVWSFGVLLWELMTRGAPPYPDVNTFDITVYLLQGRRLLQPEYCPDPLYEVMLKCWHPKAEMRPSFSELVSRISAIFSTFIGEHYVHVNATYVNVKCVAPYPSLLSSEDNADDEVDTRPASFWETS

SMILES | IC50 [6] [µM] | IC50 [3, 9] [µM] | IC50 [1] [µM] | IC50 [2] [µM] | IC50 [3, 7] [µM] | IC50 ([3]; HCT-116, read-out: IC50 to c-Met low expressing and normal cell strains) [µM] | MTD at 14 days ([4]; mouse, in vivo, oral, half value of the toxicity expression dose) [mg/kg] | toxicity expression dose ([4]; 14 days, dose with ≧10% reduction in mean BWC) [mg/kg] | body weight change ([4]; once a day, 14 days, 100 mg/kg) | decrease in BWC ([4]; once a day, 14 days, 200 mg/kg) [%] | IC50 [5] [µM] | IC50 [2, 8] [µM] | ratio HAOSMC [2] | ratio HCT-116 [3] | IC50 [5, 10] [µM] | ratio HMEC [5]
COc1cc2nccc(Oc3ccc(NC(=S)NC(=O)Cc4ccccc4)cc3F)c2cc1OC [Comp. Ex. 1, reference compound] |  |  | 0.2 | 24 | 17 | 15 to 24 | 100 | 200 | no decrease in body weight was observed | > 10 | 15 |  |  |  |  | 
COc1cc2nccc(Oc3ccc(NC(=S)NC(=O)Cc4ccccc4)cc3F)c2cc1C(=O)NCC(C)(C)O [Example 24, 4-(2-Fluoro-4-(3-(2-phenylacetyl)thioureido)phenoxy)-N-(2-hydroxy-2-methylpropyl)-7-methoxyquinoline-6-carboxamide] | 0.033 |  | 0.02 | > 30 | 23 |  |  |  |  |  | 16 |  | >1552 | 1181 |  | 1552

Further lines, with some results ahead:

IC50 [6] [µM] | IC50 [3, 9] [µM] | SMILES | IC50 [1] [µM] | IC50 [2] [µM] | IC50 [3, 7] [µM] | IC50 ([3]; HCT-116, read-out: IC50 to c-Met low expressing and normal cell strains) [µM] | MTD at 14 days ([4]; mouse, in vivo, oral, half value of the toxicity expression dose) [mg/kg] | toxicity expression dose ([4]; 14 days, dose with ≧10% reduction in mean BWC) [mg/kg] | body weight change ([4]; once a day, 14 days, 100 mg/kg) | decrease in BWC ([4]; once a day, 14 days, 200 mg/kg) [%] | IC50 [5] [µM] | IC50 [2, 8] [µM] | ratio HAOSMC [2] | ratio HCT-116 [3] | IC50 [5, 10] [µM] | ratio HMEC [5]
0.338 | > 30 | COc1cc2nccc(Oc3ccc(NC(=S)NC(=O)Cc4ccc(F)cc4)cc3F)c2cc1C(=O)NC1CCCCNC1=O (stereo not shown) [Example 19, 4-(2-Fluoro-4-(3-(2-(4-fluorophenyl)acetyl)thioureido)phenoxy)-7-methoxy-N-(2-oxoazepan-3-yl)quinoline-6-carboxamide] | 0.01 |  |  |  |  |  |  |  |  | > 30 | >3000 | >3000 | 18 | 3000
0.118 | > 30 | COc1cc2nccc(Oc3ccc(NC(=S)NC(=O)Cc4ccccc4)cc3F)c2cc1C(=O)NCC(=O)N1CCOCC1 [Example 21, 4-(2-Fluoro-4-(3-(2-phenylacetyl)thioureido)phenoxy)-7-methoxy-N-(2-morpholino-2-oxoethyl)quinoline-6-carboxamide] | 0.01 |  |  |  |  |  |  |  |  | > 30 | >3000 | >3000 | 5 | 3000
0.25 | > 30 | COc1cc2nccc(Oc3ccc(NC(=S)NC(=O)Cc4ccccc4)cc3F)c2cc1C(=O)NCC(=O)N(C)C [Example 22, N-(2-(Dimethylamino)-2-oxoethyl)-4-(2-fluoro-4-(3-(2-phenylacetyl)thioureido)phenoxy)-7-methoxyquinoline-6-carboxamide] | 0.01 |  |  |  |  |  |  |  |  | > 30 | >3000 | >3000 | > 30 | >3000
0.059 | 11 | COc1cc2nccc(Oc3ccc(NC(=S)NC(=O)Cc4ccccc4)cc3F)c2cc1C(=O)NCCS(C)(=O)=O [Example 27, 4-(2-Fluoro-4-(3-(2-phenylacetyl)thioureido)phenoxy)-7-methoxy-N-(2-(methylsulfonyl)ethyl)quinoline-6-carboxamide] | 0.02 |  |  |  |  |  |  |  |  | > 30 | >1893 | 714 | 14 | 1894
